From ChEMBL document CHEMBL1201862, “PubChem BioAssay data set” (2004) come the findings set out here.

What all share (experiment): NCI anticancer screen, dose series, 48 h
The subject of experiment [1] is OVCAR-8.
Experiment [2] relates to MCF7.
For experiment [3], the system named is COLO 205.
For experiment [4], the system named is SK-MEL-5.
The test system of experiment [5] is SR.
The test system of experiment [6] is SK-MEL-28.
Experiment [7] relates to SNB-75.
Experiment [8] relates to NCI-H23.
In experiment [9] the test system is NCI-H226.
The test system of experiment [10] is SW-620.
The subject of experiment [11] is RPMI-8226.
The test system of experiment [12] is HL-60.
Experiment [13] deals with UACC-257.
The test system of experiment [14] is SF-539.
In experiment [15] the test system is IGROV-1.
For experiment [16], the system named is UO-31.
Experiment [17] concerns NCI-H460.
In experiment [18] the test system is CAKI-1.
In experiment [19] the test system is HCT-15.
The subject of experiment [20] is CCRF-CEM.

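All cell lines were grown in 96-well plates and treated with compound for 48 hours. GI50 is the concentration that inhibits growth by half.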 Calls of active or inactive are those of the source. Cut-off read from the data, not from the text of the source: active = GI50 up to about 1.1 µM and inactive = higher.

With `Cn1c(=O)cc(NCCc2ccccc2)[nH]c1=O`, the GI50 was 43.4 µM (inactive) in [1]; 19.7 µM (inactive) in experiment [2]; 31.6 µM (inactive) in experiment [3]; 18.8 µM (inactive) in experiment [4]; 9.1 µM (inactive) in experiment [5]; 67.8 µM (inactive) in experiment [6]. Further, the GI50 in experiment [7] is 19.9 µM (inactive); in [8], 91.8 µM (inactive); in experiment [9], > 100 µM (inactive); in experiment [10] it was 27.5 µM (inactive); in [11] it was 6.12 µM (inactive); in experiment [12], > 10 µM (inactive). Further, the GI50 in [13] is 50 µM (inactive); in experiment [14], 39.4 µM (inactive); in [15], 38.8 µM (inactive); in experiment [16] it was 34.1 µM (inactive); in experiment [17] it was 34.2 µM (inactive); in experiment [18] it was 22.8 µM (inactive). For the same compound, the GI50 was 29.3 µM in [19] and 31.7 µM (inactive) in experiment [20].
With `Cc1cc(O)nc(NN2C(Cl)C(=O)C2c2ccc(O)cc2)n1` (centres undefined), the GI50 was 12.6 µM (inactive) in [1]; 4.03 µM (inactive) in experiment [2]; 18.7 µM (inactive) in experiment [3]; 8.49 µM (inactive) in [4]; 3.08 µM (inactive) in experiment [5]; 11.1 µM (inactive) in experiment [6]. The GI50 is 1.87 µM (inactive) in experiment [7]; 9.62 µM (inactive) in [8]; 10.5 µM (inactive) in experiment [9]; 5.21 µM (inactive) in [10]; 2.22 µM (inactive) in experiment [11]; 2.79 µM (inactive) in experiment [12]. Besides, the GI50 in experiment [13] is 13.1 µM (inactive); in [14] it was 8.93 µM (inactive); in [15], 7.71 µM (inactive); in [16] it was 10.5 µM (inactive); in experiment [17], 4.8 µM (inactive); in experiment [18] it was 7.13 µM (inactive). In addition, the GI50 in [19] is 4.31 µM; in experiment [20] it was 2.81 µM (inactive).
Take `C=C1C(=O)OC2CC(C)C(/C=C/C(C)=O)=CCC12` (centres undefined): the GI50 in experiment [1] was > 100 µM (inactive); in [2] it was > 100 µM (inactive); in experiment [3], 90.6 µM (inactive); in experiment [4], 71.8 µM (inactive); in experiment [5] it was 57.9 µM (inactive); in experiment [6] it was > 100 µM (inactive). Also, the GI50 was 2.99 µM (inactive) in [7]; > 100 µM (inactive) in experiment [8]; > 100 µM (inactive) in experiment [9]; 61.8 µM (inactive) in experiment [10]; 86.1 µM (inactive) in experiment [11]; 33.1 µM (inactive) in experiment [12]. Moreover, the GI50 was > 100 µM (inactive) in experiment [13]; > 100 µM (inactive) in experiment [14]; > 100 µM (inactive) in experiment [15]; > 100 µM (inactive) in experiment [17]; > 100 µM (inactive) in [18]; over 100 µM in [19]. Moreover, the GI50 in experiment [20] was 40 µM (inactive).
Turning to `C=C(C)[C@@H](C(=O)OC)N1C(=O)c2ccccc2C1=O`, the GI50 in experiment [1], in [2], in [3], in experiment [4], in experiment [5] and in experiment [6] was > 100 µM (inactive) throughout. The GI50 in [7], in experiment [8], in experiment [9], in experiment [10], in experiment [11] and in [12] was > 100 µM (inactive) throughout. The GI50 in [13], in experiment [14], in [15], in experiment [16], in [17] and in experiment [18] was > 100 µM (inactive) in each case. The values for the GI50 in experiment [19] and in experiment [20] were over 100 µM and > 100 µM (inactive), respectively.
Turning to `COc1cc2c(c(OC3OC(CO)C(O)C(O)C3O)c1)C(=O)CC(c1ccc(O)cc1)O2` (centres undefined), the GI50 in [1], in [2], in experiment [3], in experiment [4], in experiment [5] and in experiment [6] was > 100 µM (inactive) throughout. Moreover, the GI50 in [7], in experiment [8], in experiment [9], in experiment [10], in experiment [11] and in experiment [12] was > 100 µM (inactive) in each case. The GI50 in experiment [13], in [14], in [15], in experiment [16], in experiment [17] and in experiment [18] was > 100 µM (inactive) throughout. Further, the results for the GI50 in experiment [19] and in experiment [20] were over 100 µM and > 10 µM (inactive), respectively.
With `CC1=NN(c2ccccc2)C(=O)C1C(=O)C(=O)Nc1ccc(C)cc1C` (centres undefined), the GI50 in experiment [1], in experiment [2], in [3], in experiment [4], in [5] and in experiment [6] was > 100 µM (inactive) in each case. Further, the GI50 in [7], in experiment [8], in experiment [9], in experiment [10], in experiment [11] and in experiment [12] was > 100 µM (inactive) throughout. In addition, the GI50 in [13], in experiment [14], in [15], in experiment [16], in experiment [17] and in [18] was > 100 µM (inactive) each time. In addition, the figures for the GI50 in experiment [19] and in experiment [20] were over 100 µM and > 100 µM (inactive), respectively.
Regarding `CC(NCc1c(O)ccc2c(-c3ccccc3)cc(=O)oc12)C(=O)O` (centres undefined), the GI50 in experiment [1], in [2], in experiment [3], in experiment [4], in experiment [5] and in [6] was > 100 µM (inactive) in each case. Besides, the GI50 in experiment [7], in experiment [8], in experiment [9], in experiment [10], in experiment [11] and in experiment [12] was > 100 µM (inactive) in each case. The GI50 in experiment [13], in [14], in [15], in experiment [16], in experiment [17] and in experiment [18] was > 100 µM (inactive) each time. Also, the GI50 was over 100 µM in experiment [19] and > 100 µM (inactive) in experiment [20].
Regarding `Cc1ccc(NC(=O)c2ccc(OP(=O)(O)Nc3ccc(C)cc3)cc2)cc1`, the GI50 in experiment [1], in experiment [2], in experiment [3], in experiment [4], in experiment [5] and in [6] was > 100 µM (inactive) throughout. Also, the GI50 in experiment [7], in experiment [8], in experiment [9], in experiment [10], in experiment [11] and in experiment [12] was > 100 µM (inactive) in each case. Further, the GI50 in [13] is > 100 µM (inactive); in experiment [14], > 100 µM (inactive); in [15], > 100 µM (inactive); in experiment [16], 66.8 µM (inactive); in [17], > 100 µM (inactive); in experiment [18], > 100 µM (inactive). Besides, the figures for the GI50 in experiment [19] and in experiment [20] were over 100 µM and > 100 µM (inactive), respectively.
On to `CC(O)c1cc2c(s1)C(=O)c1scc(C(C)O)c1C2=O` (centres undefined), for which the GI50 in [1] was 0.286 µM (active); in experiment [2], 0.413 µM (active); in experiment [3], 1.91 µM (inactive); in experiment [4] it was 0.156 µM (active); in experiment [5] it was 0.271 µM (active); in [6], 0.279 µM (active). Moreover, the GI50 was 0.29 µM (active) in [7]; 0.191 µM (active) in experiment [8]; 2 µM (inactive) in experiment [9]; 0.321 µM (active) in experiment [10]; 0.579 µM (active) in [11]; 0.646 µM (active) in experiment [12]. Further, the GI50 in [13] was 0.176 µM (active); in experiment [14] it was 0.23 µM (active); in experiment [15] it was 1.68 µM (inactive); in experiment [16] it was 0.337 µM (active); in experiment [17] it was 0.757 µM (active); in experiment [18] it was 1.01 µM (active). The GI50 in experiment [19] is 0.352 µM; in experiment [20], 1.18 µM (inactive).
`O=C(Nc1ccn(C2CCC(COC(c3ccccc3)(c3ccccc3)c3ccccc3)O2)c(=O)n1)c1ccccc1` (centres undefined): the GI50 in experiment [1] was 4.82 µM (inactive); in experiment [2], 4.22 µM (inactive); in experiment [3], 1.77 µM (inactive); in experiment [4], 2.78 µM (inactive); in experiment [5], 2.34 µM (inactive); in experiment [6], 9.23 µM (inactive). In addition, the GI50 in experiment [7] was 2.39 µM (inactive); in [8], 2.31 µM (inactive); in experiment [9] it was 6.9 µM (inactive); in experiment [10], 4.94 µM (inactive); in [11], 2.31 µM (inactive); in [12], 1.83 µM (inactive). The GI50 in [13] is 6.81 µM (inactive); in experiment [14], 3.43 µM (inactive); in experiment [15] it was 6.04 µM (inactive); in [16] it was 5.3 µM (inactive); in experiment [17], 2.92 µM (inactive); in [18], 4.51 µM (inactive). Besides, the GI50 in [19] is 4.18 µM; in experiment [20], 3.28 µM (inactive).
